This test in a line: In vitro binding affinity towards FKBP12 domain of peptidyl-propyl isomerase (PPIase).
For the compound `CCC(C)(C)C(=O)C(=O)N1C2CCC(C2)[C@H]1C(=O)SCCCc1ccccc1` (stereo partly specified), the IC50 stood at 2300 nM. The compound `CCC(C)(C)C(=O)C(=O)N1C2CCC(C2)[C@H]1C(=O)SCCC(c1ccccc1)c1ccccc1` (stereo partly specified) registered a concentration for half-maximal inhibition (IC50) of 980 nM. The value for `O=C(SCCCc1ccccc1)[C@@H]1C2CCC(C2)N1S(=O)(=O)c1ccccc1` (stereo partly specified) was 910 nM; that for `O=C(OCCCc1ccccc1)[C@@H]1C2CCC(C2)N1S(=O)(=O)Cc1ccccc1` (stereo partly specified) was 1300 nM. Turning to `CCC(C)(C)C(=O)C(=O)N1C2CCC(C2)[C@@H]1C(=O)OCCCc1ccccc1` (stereo partly specified), the IC50 was greater than 25000 nM. Compound `O=C(OCCCc1ccccc1)[C@@H]1C2CCC(C2)N1S(=O)(=O)c1ccccc1` (stereo partly specified) came in with a concentration for half-maximal inhibition (IC50) of 650 nM. Consider `COc1cc(C(=O)C(=O)N2C3CCCC2C(=O)OCCCCOC3=O)cc(OC)c1OC`, for which the IC50 was 0.28 nM.

In turn, `CCC(C)(C)C(=O)C(=O)N1C2CCC(C2)[C@@H]1C(=O)SCCC(c1ccccc1)c1ccccc1` (stereo partly specified) had a 50% inhibitory concentration (IC50) greater than 25000 nM.

`CCC(C)(C)C(=O)C(=O)N1C2CCC(C2)[C@@H]1C(=O)SCCCc1ccccc1` (stereo partly specified) came in with a half-inhibitory concentration (IC50) of 22000 nM. This counts as double-digit micromolar. Turning to `O=C1CC2CCCC(Sc3ccccc3)(C1)C2` (stereo unspecified), the half-maximal inhibitory concentration (IC50) was found to be 9.2 nM. For `CCC(C)(C)C(=O)C(=O)N1C2CCC(C2)[C@@H]1C(=O)OCCCc1ccncc1` (stereo partly specified), the IC50 was greater than 25000 nM. Regarding `CCC(C)(C)C(=O)C(=O)N1C2CCC(C2)[C@H]1C(=O)OCCCc1ccncc1` (stereo partly specified), the IC50 was found to be 15000 nM. That is a double-digit micromolar value. With `CCC(C)(C)C(=O)C(=O)N1C2CCC(C2)[C@H]1C(=O)OCCCCc1ccccc1` (stereo partly specified), the IC50 was 710 nM. Turning to `CCC(C)(C)C(=O)C(=O)N1C2CCC(C2)[C@@H]1C(=O)OCCCCc1ccccc1` (stereo partly specified), the 50% inhibitory concentration (IC50) came to 5100 nM. In turn, `CCC(C)(C)C(=O)C(=O)N1C2CCC(C2)[C@H]1C(=O)OCCCc1ccccc1` (stereo partly specified) yielded a 50% inhibitory concentration (IC50) of 670 nM.

`O=C(SCCCc1ccccc1)[C@@H]1C2CCC(C2)N1S(=O)(=O)Cc1ccccc1` (stereo partly specified): the IC50 was determined as 720 nM.

The IC50 is the point on the concentration scale where inhibition reaches its midpoint. Read a low IC50 as greater potency.

The values above are taken from ChEMBL document CHEMBL1136341, “Synthesis and evaluation of chiral bicyclic proline FKBP12 ligands” (Bioorg Med Chem Lett, 2003).
